According to PMC3600326, “Design, Synthesis, and Evaluation of New Tripeptides as COX-2 Inhibitors” (Journal of Amino Acids, 2013):
Residues, ends and D or L forms follow the SMILES beside them.

Key:
hCOX-1 = target: T1, hCOX-1 (Homo sapiens, UniProt P23219); assay: hCOX activity, TMPD oxidation with AA as substrate, COX-1 from human platelet microsomes; format: biochemical; settings: means ± SEM from five experiments; *** = no active at 500 μM
T1 construct: COX-1 from human platelet microsomes; from tissue; host or cells: human platelets (microsomes) from donor buffy coat
T1 sequence (P23219 24-599): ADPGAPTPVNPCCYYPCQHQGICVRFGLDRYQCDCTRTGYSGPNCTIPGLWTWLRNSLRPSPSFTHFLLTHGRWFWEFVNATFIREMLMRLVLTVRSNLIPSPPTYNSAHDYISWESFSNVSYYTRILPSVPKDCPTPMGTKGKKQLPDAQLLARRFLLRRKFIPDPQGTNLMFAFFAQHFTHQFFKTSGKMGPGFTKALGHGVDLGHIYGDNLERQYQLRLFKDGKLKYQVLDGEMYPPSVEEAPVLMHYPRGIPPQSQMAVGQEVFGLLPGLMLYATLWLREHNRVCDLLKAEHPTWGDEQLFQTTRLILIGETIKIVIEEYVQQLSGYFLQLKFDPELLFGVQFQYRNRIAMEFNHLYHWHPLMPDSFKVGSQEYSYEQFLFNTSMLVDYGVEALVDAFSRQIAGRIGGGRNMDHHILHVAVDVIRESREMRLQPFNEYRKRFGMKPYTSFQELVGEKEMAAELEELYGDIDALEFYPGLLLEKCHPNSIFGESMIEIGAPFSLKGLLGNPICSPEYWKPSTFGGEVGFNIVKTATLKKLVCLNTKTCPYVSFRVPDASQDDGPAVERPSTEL
Procedure: Washed human platelets were prepared from blood anticoagulated with citrate-phosphate-dextrose, which was obtained from Centro de Transfusion de Galicia (Santiago de Compostela, Spain).
The upper layer containing platelets (platelet-rich plasma) was removed and centrifuged at 1000 g for 18 min. The resulting platelet pellet was recovered, resuspended with washing buffer, and centrifuged again at 1000 g for 15 min. Finally, the platelet pellet from this step was resuspended in a modified Tyrode-HEPES buffer (HEPES 10 mM; NaCl 140 mM; KCl 3 mM; MgCl2 0.5 mM; NaHCO3 5 mM; glucose 10 mM; pH 7.4) to afford a cell density of 3–3.5·10^8 platelet/mL. The calcium concentration in the extracellular medium was 2 mM [13].
(§1) The potential effects of the test drugs on total hCOX activity (bis-dioxygenase and peroxidase reactions) were investigated by measuring their effects on the oxidation of N,N,N′,N′-tetramethyl-p-phenylenediamine (TMPD) to […], using AA as common substrate for both hCOX-1 and hCOX-2, microsomal COX-2 prepared from insect cells (Sf21 cells) infected with recombinant baculovirus containing cDNA inserts for hCOX-2 (Sigma Aldrich Química S.A., Alcobendas, Spain), and COX-1 from human platelet microsomes (obtained as described in the above paragraph since, unlike hCOX-2, hCOX-1 is not available commercially).
(§2) Results shown in Table 3 are expressed as means ± SEM from five experiments. Means were compared by one-way analysis of variance (ANOVA) followed by Dunnett's post-hoc test.
(§3) This regression was performed using the data obtained with 4–6 different concentrations of each compound assayed, which inhibited the enzymatic activity of COX control isoform between 20 and 80%.

hCOX-2 = target: T2, hCOX-2 (Homo sapiens, UniProt P35354); assay: hCOX activity, TMPD oxidation with AA as substrate, microsomal recombinant hCOX-2 from Sf21 insect cells; format: biochemical; settings: for IC50: means ± SEM from five experiments, *** = no active at 500 μM, read-out: COX-2 (IC50); for Ratio, index of selectivity SI = [IC50(COX-2)]/[IC50(COX-1)]: COX-2 over COX-1, bounds use the highest concentration tested
T2 construct: purchased Sigma Aldrich Química S.A., Alcobendas, Spain; host or cells: Sf21 insect cells infected with recombinant baculovirus
T2 sequence (P35354 18-604): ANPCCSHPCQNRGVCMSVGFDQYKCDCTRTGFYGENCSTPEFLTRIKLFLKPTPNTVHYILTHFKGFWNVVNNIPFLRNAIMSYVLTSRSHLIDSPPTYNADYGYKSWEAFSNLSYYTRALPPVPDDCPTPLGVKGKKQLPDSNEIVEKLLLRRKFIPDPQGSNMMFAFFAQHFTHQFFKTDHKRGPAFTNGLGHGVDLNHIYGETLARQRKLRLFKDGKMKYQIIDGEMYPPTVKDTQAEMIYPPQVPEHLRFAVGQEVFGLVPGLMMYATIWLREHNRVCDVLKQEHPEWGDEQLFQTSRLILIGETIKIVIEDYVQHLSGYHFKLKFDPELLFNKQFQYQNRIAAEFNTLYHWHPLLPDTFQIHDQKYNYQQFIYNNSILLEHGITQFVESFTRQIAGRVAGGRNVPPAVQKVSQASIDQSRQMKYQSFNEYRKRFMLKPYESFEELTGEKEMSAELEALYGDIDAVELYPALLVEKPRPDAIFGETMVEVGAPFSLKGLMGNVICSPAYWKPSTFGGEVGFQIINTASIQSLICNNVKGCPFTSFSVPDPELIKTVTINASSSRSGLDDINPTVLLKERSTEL
Excerpt: as §1, §2, §3

COX-2 = tested on: COX-2; design: method as in PMID 17640617; settings: ELISA test; cited from earlier work

Compound | IC50 (hCOX-1) [µM] | IC50 (hCOX-2) [µM] | Ratio, index of selectivity SI = [IC50(COX-2)]/[IC50(COX-1)] (hCOX-2) | inhibition of COX-2 activity (COX-2)
C[C@H](N)C(=O)N[C@@H](CCC(=O)O)C(=O)N[C@@H](CCCNC(=N)N)C(=O)O [Peptide S9, AER] (H-Ala-Glu-Arg-OH) | 221.6 ± 1.04 | 68.3 ± 5.43 |  | 
CC[C@H](C)[C@H](NC(=O)[C@H](Cc1c[nH]cn1)NC(=O)[C@@H](N)CCCCN)C(=O)O [Peptide S8, KHI] (H-Lys-His-Ile-OH) | 122 ± 3.78 | 91.7 ± 2.98 | 0.7484 | 
C[C@H](N)C(=O)NCC(=O)N[C@@H](CCCNC(=N)N)C(=O)O [Peptide S10, AGR] (H-Ala-Gly-Arg-OH) | 99.1 ± 1.55 | 79.2 ± 2.15 | 0.7991 | 
C[C@H](N)C(=O)N[C@@H](CCCNC(=N)N)C(=O)N[C@@H](C)C(=O)O [Peptide S6, ARA] (H-Ala-Arg-Ala-OH) | 102 ± 1.14 | 91.2 ± 2.41 | 0.8914 | 
CSCC[C@H](NC(=O)CN)C(=O)N[C@@H](CC(=O)O)C(=O)O [Peptide S1, Gly-Met-Asp] (H-Gly-Met-Asp-OH) | 150 ± 2.34 | 94 ± 2.59 | 0.6255 | 
NCC(=O)N[C@@H](Cc1c[nH]cn1)C(=O)N[C@@H](CCC(=O)O)C(=O)O [Peptide S3, Gly-His-Glu] (H-Gly-His-Glu-OH) | 152 ± 5.18 | 94.9 ± 2.12 | 0.6225 | 
N=C(N)NCCC[C@H](NC(=O)[C@H](CCC(=O)O)NC(=O)[C@@H]1CCCN1)C(=O)O [Peptide S7, PER] (H-Pro-Glu-Arg-OH) | 100 ± 2.19 | 88.2 ± 3.01 | 0.8792 | 
WCS |  |  |  | more than 85%
N=C(N)NCCC[C@H](NC(=O)[C@H](CCC(=O)O)NC(=O)CN)C(=O)O [Peptide S4, GER] (H-Gly-Glu-Arg-OH) | 99.3 ± 1.14 | 80.6 ± 2.14 | 0.8111 | 
N=C(N)NCCC[C@H](NC(=O)[C@@H](N)CC(=O)O)C(=O)N[C@@H](CS)C(=O)O [Peptide S5, DRC] (H-Asp-Arg-Cys-OH) | 161 ± 2.57 | 100 ± 2.33 | 0.6195 | 
COc1ccc(-c2nc(C(=O)N3CCN(C)CC3)sc2-c2ccc(OC)cc2)cc1 [FR122047, reference compound] | 93.8 ± 6.55 | > 500 |  | 
C[C@H](NC(=O)[C@H](CCCNC(=N)N)NC(=O)[C@@H](N)CCC(=O)O)C(=O)O [Peptide S2, ERA] (H-Glu-Arg-Ala-OH) | 143 ± 2.57 | 121 ± 2.33 | 0.8443 | 
